{"source": "patent US20150366998A1", "about": "“ORAL DELIVERY OF DRUG ACTIVES IN LABORATORY ANIMALS USING FAST-DISSOLVING ORAL FILMS” (priority 2014, published 2015)", "key": {"female WT mice": {"system": "female WT mice", "assay": "24-h two-bottle choice paradigm, 10% ethanol in water (10E) vs water, IVM oral thin film or gavage", "format": "in vivo"}, "[1]": {"assay": "30-day oral film study: body weight, food intake, organ weight to tibia length ratio, tolerability", "format": "in vivo, mice", "description": "In this study, there were 4 groups.\nIVM was given for 30 days, 5 times per week for 6 weeks. […] After being presented with the tip of the gavage needle, mice would self-administer the oral films.\nEthanol intake was expressed as g/kg/24-h and summarized using means±SEM across groups. A two-way ANOVA was used to analyze 10E intake between the 4 groups over the 30 days of treatment. A one-way ANOVA was used to compare mean 10E intake, 10E preference, water intake, fluid intake, food intake, mouse weight, and organ weight/tibia length ratio across the 4 groups. GraphPAD Prism software (San Diego, Calif.) was used for data analysis."}, "mice": {"system": "mice", "details": "cited from earlier work"}, "[2]": {"details": "IVM 0.21 mg oral thin film, 30 days, vs control and placebo groups"}, "[3]": {"details": "doses needed to produce the anti-alcohol effects (Bortolato 2013)"}}, "note": "Entries after “also recorded” stand apart in the source; their conditions may differ."}
{"molecule": "CC[C@H](C)[C@H]1O[C@]2(CC[C@@H]1C)C[C@@H]1C[C@@H](C/C=C(\\C)[C@@H](O[C@H]3C[C@H](OC)[C@@H](O[C@H]4C[C@H](OC)[C@@H](O)[C@H](C)O4)[C@H](C)O3)[C@@H](C)/C=C/C=C3\\CO[C@@H]4[C@H](O)C(C)=C[C@@H](C(=O)O1)[C@]34O)O2", "note": "[IVM, ivermectin]", "values": [{"measurement": "10E (alcohol) intake", "setting": "female WT mice; IVM 0.21 mg oral thin film, 30 days, 5 times per week for 6 weeks, vs no action and placebo film", "result": "drank consistently less 10E; also recorded: effective in reducing 10E intake; also recorded: significantly reduces"}, {"measurement": "10E preference", "setting": "female WT mice; [2]", "result": "significantly less; also recorded: significantly reduces"}, {"measurement": "total fluid intake", "setting": "female WT mice; [2]", "result": "similar; also recorded: without significantly affecting"}, {"measurement": "decrease of 10E intake compared to baseline", "setting": "female WT mice; IVM 0.21 mg via fast dissolving oral film, 24-h two bottle choice, female WT mice, n=8, p<0.001 vs baseline", "result": "approximately 40%"}, {"measurement": "10E intake", "setting": "female WT mice; IVM 5 mg/kg, oral gavage (placebo gavage corn oil)", "result": "decreased 10E intake"}, {"measurement": "organ weight to tibia length ratio", "setting": "[1]; IVM 0.21 mg oral thin film, 30 days, 6 organs analyzed, vs control and placebo groups", "result": "no significant difference; also recorded: without significantly affecting"}, {"measurement": "animal weight gain / change in body weight", "setting": "[1]; IVM 0.21 mg oral thin film, 30 days, vs no action and placebo", "result": "similar; also recorded: without significantly affecting"}, {"measurement": "tolerability / overt signs of toxicity", "setting": "[1]; chronic (30 day) oral administration of IVM via oral film", "result": "well tolerated; also recorded: without causing overt signs of toxicity"}, {"measurement": "rewarding properties (addiction liability)", "setting": "mice; IVM regimen producing anti-alcohol effects", "result": "did not exert rewarding properties"}, {"measurement": "ethanol intake in mice", "setting": "mice; acute and 7 day administration (Yardley 2012)", "result": "significantly reduce"}, {"measurement": "anxiolytic-like effects", "setting": "mice; [3]", "result": "elicited anxiolytic-like effects"}, {"measurement": "overt signs of toxicity", "setting": "mice; [3]", "result": "did not induce overt signs of toxicity"}]}
